{"source": "ChEMBL document CHEMBL1201862", "about": "“PubChem BioAssay data set” (2004)", "key": {"[1]": {"biological_target": "Vasopressin V1a receptor (Homo sapiens, UniProt P37288)", "sequence (P37288 whole entry)": "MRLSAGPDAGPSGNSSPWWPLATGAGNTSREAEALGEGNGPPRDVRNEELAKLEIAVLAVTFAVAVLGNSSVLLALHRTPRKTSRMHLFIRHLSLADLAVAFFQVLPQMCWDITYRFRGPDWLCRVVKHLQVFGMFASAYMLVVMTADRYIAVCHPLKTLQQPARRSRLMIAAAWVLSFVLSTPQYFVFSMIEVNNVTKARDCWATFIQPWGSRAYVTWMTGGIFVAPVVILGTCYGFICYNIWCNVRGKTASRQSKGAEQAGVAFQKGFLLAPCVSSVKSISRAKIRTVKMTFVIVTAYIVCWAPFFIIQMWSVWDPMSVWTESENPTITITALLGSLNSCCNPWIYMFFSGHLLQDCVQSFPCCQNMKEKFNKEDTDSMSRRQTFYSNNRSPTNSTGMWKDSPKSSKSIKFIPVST", "assay": "Counterscreen for Oxytocin Receptor (OXTR) agonists: Fluorescence-based cell-based high throughput dose response assay to identify agonists of the vasopressin 1 receptor (V1R). [Related pubchem assays: 2435 (Primary screen (OXTR agonists in singlicate)), 434991 (Counterscreen (V1R agonists in triplicate)), 2482 (Summary (OXTR agonists)) …", "format": "functional"}, "[2]": {"biological_target": "Oxytocin receptor (Homo sapiens, UniProt P30559)", "sequence (P30559 whole entry)": "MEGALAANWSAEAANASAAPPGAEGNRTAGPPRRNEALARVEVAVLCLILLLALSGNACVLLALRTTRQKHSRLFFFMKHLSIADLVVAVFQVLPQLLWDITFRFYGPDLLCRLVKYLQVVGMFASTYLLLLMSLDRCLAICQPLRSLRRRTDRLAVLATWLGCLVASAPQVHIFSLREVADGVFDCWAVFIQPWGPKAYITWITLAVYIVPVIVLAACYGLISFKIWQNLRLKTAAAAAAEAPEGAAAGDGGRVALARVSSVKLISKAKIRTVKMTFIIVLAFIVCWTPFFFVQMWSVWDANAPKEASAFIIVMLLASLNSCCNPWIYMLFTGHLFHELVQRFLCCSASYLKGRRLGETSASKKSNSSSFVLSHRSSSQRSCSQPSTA", "assay": "Fluorescence-based cell-based high throughput dose response assay for agonists of the Oxytocin Receptor (OXTR). [Related pubchem assays: 2435 (Primary screen (OXTR agonists in singlicate)), 434991 (Counterscreen (V1R agonists in triplicate)), 2482 (Summary (OXTR agonists)), 434963 (Confirmation screen (OXTR agonists in triplicate))]", "format": "functional"}, "[3]": {"biological_target": "Photoreceptor-specific nuclear receptor (Homo sapiens, UniProt Q9Y5X4)", "sequence (Q9Y5X4 whole entry)": "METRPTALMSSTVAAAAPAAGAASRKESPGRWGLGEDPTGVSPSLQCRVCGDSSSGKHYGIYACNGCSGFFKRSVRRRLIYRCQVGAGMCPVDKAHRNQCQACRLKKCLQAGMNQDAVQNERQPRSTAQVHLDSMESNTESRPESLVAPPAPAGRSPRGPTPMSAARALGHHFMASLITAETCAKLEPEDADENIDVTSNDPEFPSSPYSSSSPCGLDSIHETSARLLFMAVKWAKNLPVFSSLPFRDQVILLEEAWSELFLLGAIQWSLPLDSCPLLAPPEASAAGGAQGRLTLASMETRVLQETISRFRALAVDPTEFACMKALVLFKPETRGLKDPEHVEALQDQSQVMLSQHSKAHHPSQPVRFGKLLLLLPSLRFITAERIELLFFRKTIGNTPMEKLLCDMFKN", "format": "functional, cell-based"}, "[4]": {"assay": "inhibitors of firefly luciferase expression or activity, dose response, H4 neuroglioma cells, luminescence (AID 1990)", "format": "functional, cell-based"}, "[5]": {"assay": "luciferase reporter signal reduction – luminescence, H4-C neuroglioblastoma cells, dose response (AID 2458);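 further: H4 neuroglioblastoma cells stably carrying a luciferase reporter gene fusion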", "format": "functional, cell-based"}, "[6]": {"assay": "cells", "format": "functional, cell-based"}, "[7]": {"assay": "Luminescence Cell-Based Dose Response HTS to Identify Inhibitors of 5'UTR Stem-Loop Driven Prion Protein mRNA Translation in H4 Neuroglioblastoma Cells. [Related pubchem assays: 1827 (Project Summary), 1813 (Primary HTS)]", "format": "functional"}, "[8]": {"assay": "inhibitors of SNCA 5'UTR-driven reporter translation, confirmation, H4 neuroglioma cells, luminescence (AID 1988)", "format": "functional, cell-based"}, "[9]": {"assay": "inhibitors of SNCA 5'UTR-driven translation, confirmation, luminescence, H4 neuroglioblastoma cells, dose confirmation (AID 2454);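 further: H4 neuroglioblastoma cells carrying an alpha-synuclein 5'UTR luciferase reporter; potency for inhibition of the luciferase signal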", "format": "functional, cell-based"}, "[10]": {"biological_target": "Eukaryotic translation initiation factor 4H (Homo sapiens, UniProt Q15056)", "assay": "human eIF4H binding inhibitors, primary screen, translation initiation inhibitor project, biochemical, uHTS, fluorescence polarization (AID 2012)"}, "[11]": {"biological_target": "T1, Heat shock factor protein 1 (Mus musculus, UniProt P38532)", "T1 sequence (P38532 whole entry)": "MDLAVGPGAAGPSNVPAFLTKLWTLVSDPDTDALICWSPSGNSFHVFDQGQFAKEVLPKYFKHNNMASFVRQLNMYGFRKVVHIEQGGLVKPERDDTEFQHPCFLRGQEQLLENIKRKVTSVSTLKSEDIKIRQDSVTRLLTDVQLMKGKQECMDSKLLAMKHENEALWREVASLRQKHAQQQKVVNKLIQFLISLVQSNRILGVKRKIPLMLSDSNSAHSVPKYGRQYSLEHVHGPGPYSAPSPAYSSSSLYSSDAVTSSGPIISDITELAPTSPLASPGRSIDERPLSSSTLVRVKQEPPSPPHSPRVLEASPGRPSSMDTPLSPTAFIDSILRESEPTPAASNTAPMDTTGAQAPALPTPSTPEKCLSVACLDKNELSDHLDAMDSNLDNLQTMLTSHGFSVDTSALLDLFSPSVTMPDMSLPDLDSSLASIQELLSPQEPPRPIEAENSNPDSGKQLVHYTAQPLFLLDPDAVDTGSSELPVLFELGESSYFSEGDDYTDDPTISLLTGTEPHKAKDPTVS", "assay": "inhibition of MG132-induced HSE-luciferase signal, confirmation, cell-based, NIH3T3, luminescence, dose retest (AID 2382);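 further: NIH3T3 fibroblasts with HSF1-driven luciferase reporter stressed by proteasome inhibitor MG132; luminescence from HSF1-driven luciferase expression after 8 hours of MG132 stress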", "format": "functional"}, "[12]": {"biological_target": "Polyadenylate-binding protein 1 (Homo sapiens, UniProt P11940)", "sequence (P11940 whole entry)": "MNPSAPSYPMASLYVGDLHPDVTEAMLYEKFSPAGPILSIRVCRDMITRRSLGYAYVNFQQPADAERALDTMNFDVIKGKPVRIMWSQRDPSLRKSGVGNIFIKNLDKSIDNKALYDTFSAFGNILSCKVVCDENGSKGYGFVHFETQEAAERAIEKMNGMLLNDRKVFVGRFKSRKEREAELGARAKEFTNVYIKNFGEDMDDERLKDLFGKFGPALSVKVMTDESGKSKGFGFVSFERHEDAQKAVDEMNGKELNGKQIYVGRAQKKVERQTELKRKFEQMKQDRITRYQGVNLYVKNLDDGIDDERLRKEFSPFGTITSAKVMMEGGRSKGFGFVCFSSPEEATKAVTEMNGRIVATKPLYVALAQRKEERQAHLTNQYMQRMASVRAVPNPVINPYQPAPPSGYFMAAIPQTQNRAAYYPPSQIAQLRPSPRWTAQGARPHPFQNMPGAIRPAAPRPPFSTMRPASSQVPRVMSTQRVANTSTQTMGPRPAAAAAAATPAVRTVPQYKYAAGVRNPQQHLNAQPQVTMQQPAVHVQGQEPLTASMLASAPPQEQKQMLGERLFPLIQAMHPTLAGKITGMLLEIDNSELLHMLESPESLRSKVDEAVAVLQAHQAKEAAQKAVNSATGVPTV", "assay": "PABP poly(A) RNA binding inhibitors, primary screen, biochemical, fluorescence polarization, uHTS (AID 2014)"}, "[13]": {"biological_target": "NS3 (Hepatitis C virus, UniProt A3EZJ3)", "sequence (A3EZJ3 whole entry)": "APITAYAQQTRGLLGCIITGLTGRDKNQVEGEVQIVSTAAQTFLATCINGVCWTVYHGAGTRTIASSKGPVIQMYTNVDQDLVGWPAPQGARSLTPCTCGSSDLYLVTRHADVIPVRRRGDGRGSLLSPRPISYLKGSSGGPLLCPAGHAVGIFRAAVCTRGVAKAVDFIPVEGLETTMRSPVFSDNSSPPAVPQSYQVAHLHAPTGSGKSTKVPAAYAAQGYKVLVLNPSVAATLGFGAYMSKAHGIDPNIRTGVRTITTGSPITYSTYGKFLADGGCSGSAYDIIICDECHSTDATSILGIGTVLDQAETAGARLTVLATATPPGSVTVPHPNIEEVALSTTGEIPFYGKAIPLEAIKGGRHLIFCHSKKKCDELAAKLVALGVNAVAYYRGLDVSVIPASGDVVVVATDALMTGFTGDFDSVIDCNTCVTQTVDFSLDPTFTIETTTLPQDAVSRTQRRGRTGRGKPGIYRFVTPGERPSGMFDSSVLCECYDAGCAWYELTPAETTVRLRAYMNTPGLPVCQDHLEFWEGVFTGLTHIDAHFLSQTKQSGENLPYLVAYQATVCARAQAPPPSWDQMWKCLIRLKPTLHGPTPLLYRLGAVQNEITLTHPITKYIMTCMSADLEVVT", "assay": "PubChem AID 2173", "set-up": "species or system Hepacivirus hominis"}, "[14]": {"biological_target": "Induced myeloid leukemia cell differentiation protein Mcl-1 (Homo sapiens, UniProt Q07820)", "sequence (Q07820 whole entry)": "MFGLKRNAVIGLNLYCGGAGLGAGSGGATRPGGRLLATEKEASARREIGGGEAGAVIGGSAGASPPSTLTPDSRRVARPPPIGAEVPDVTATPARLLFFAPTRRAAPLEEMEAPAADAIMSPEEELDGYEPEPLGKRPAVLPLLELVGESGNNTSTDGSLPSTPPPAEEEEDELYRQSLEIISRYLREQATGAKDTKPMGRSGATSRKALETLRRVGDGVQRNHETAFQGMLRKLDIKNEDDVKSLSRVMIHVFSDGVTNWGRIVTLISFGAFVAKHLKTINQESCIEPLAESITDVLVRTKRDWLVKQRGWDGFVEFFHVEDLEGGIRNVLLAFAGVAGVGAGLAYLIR", "format": "functional"}, "[15]": {"test_system": "BJ", "assay": "cytotoxicity toward BJ-TERT fibroblasts, dose response, cell-based, RAS-independent, luminescence (AID 1933)", "format": "functional", "settings": "Homo sapiens"}, "[16]": {"test_system": "BJ", "assay": "cells", "format": "functional, cell-based", "settings": "Homo sapiens"}, "[17]": {"biological_target": "T2, Sphingosine 1-phosphate receptor 4 (Homo sapiens, UniProt O95977)", "T2 sequence (O95977 whole entry)": "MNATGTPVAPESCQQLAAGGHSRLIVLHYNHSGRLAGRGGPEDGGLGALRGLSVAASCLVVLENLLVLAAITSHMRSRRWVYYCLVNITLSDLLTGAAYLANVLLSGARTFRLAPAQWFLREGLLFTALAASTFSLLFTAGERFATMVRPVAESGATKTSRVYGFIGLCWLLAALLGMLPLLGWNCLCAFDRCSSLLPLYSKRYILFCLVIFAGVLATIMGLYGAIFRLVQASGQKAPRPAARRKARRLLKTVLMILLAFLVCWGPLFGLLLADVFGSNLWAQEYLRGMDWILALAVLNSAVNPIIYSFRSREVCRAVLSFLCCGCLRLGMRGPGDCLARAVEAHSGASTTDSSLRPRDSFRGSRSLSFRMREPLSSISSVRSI", "assay": "Fluorescence dose response cell-based high throughput screening assay for antagonists of the Sphingosine 1-Phosphate Receptor 4 (S1P4). [Related pubchem assays: 1524 (Confirmation in triplicates.), 1510 (Primary screen.)]", "format": "functional"}, "[18]": {"test_system": "BJ", "assay": "cytotoxicity toward BJ-TERT-LT-ST fibroblasts, dose response, cell-based, RAS-independent, luminescence (AID 1935);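 further: BJ fibroblasts immortalized with TERT plus LT and ST oncogenes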", "format": "functional", "settings": "Homo sapiens"}, "[19]": {"assay": "cytotoxicity toward DRD oncogenic fibroblasts, dose response, cell-based, non-viral oncogenic, luminescence (AID 1934)", "format": "functional", "settings": "Homo sapiens"}, "[20]": {"biological_target": "Sphingosine 1-phosphate receptor 1 (Homo sapiens, UniProt P21453)", "sequence (P21453 whole entry)": "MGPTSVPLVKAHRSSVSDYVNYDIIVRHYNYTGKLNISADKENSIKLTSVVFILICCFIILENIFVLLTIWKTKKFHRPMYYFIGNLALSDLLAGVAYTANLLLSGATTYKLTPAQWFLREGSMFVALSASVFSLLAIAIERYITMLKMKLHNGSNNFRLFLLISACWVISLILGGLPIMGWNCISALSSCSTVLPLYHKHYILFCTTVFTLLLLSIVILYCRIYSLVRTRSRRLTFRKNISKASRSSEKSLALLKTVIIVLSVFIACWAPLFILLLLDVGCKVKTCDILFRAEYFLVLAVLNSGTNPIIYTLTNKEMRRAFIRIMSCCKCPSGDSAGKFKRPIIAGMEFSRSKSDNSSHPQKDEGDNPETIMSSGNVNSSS", "format": "functional"}, "[21]": {"biological_target": "G-protein coupled receptor 55 (Homo sapiens, UniProt Q9Y2T6)", "sequence (Q9Y2T6 whole entry)": "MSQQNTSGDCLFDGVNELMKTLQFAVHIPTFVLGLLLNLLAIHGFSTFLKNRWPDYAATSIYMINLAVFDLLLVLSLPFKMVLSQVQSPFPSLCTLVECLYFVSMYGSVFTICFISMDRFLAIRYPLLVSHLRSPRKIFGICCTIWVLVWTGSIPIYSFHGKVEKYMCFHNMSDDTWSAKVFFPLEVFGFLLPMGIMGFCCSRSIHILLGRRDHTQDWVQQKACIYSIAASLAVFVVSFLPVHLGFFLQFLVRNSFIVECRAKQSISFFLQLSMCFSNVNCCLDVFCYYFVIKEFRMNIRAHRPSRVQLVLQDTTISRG", "assay": "GPR55 agonists via beta-arrestin recruitment, primary screen, imaging, U2OS cells, beta-arrestin-GFP redistribution (AID 1961)", "format": "functional"}, "[22]": {"assay": "THP-1 cell cytotoxicity, dose response, cytotoxicity control for non-replicating M. tuberculosis project (AID 489025)", "format": "functional"}, "[23]": {"assay": "cytotoxicity in HEK-293T cells, dose response, cytotoxicity control for TCR NF-kB inhibitor project, luminescence, T-cell screen hits (AID 489026);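 further: cells exposed to compound about 14 hours before the viability readout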", "format": "functional, cell-based"}, "[24]": {"test_system": "BJ", "assay": "cytotoxicity toward Ras-transformed BJeLR fibroblasts, dose response, cell-based, alamar blue fluorescence, cherrypicked samples (AID 2631);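 further: confirmatory dose-response assay in RAS-dependent BJ fibroblasts engineered with TERT, LT and ST, with cytotoxicity read by fluorescence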", "format": "functional", "settings": "Homo sapiens"}, "[25]": {"assay": "HEp-2 cell cytotoxicity, dose response, cytotoxicity control for RSV inhibitor project, HTS (AID 2410)", "format": "functional", "settings": "human respiratory syncytial virus"}, "[26]": {"biological_target": "5-hydroxytryptamine receptor 1E (Homo sapiens, UniProt P28566)", "sequence (P28566 whole entry)": "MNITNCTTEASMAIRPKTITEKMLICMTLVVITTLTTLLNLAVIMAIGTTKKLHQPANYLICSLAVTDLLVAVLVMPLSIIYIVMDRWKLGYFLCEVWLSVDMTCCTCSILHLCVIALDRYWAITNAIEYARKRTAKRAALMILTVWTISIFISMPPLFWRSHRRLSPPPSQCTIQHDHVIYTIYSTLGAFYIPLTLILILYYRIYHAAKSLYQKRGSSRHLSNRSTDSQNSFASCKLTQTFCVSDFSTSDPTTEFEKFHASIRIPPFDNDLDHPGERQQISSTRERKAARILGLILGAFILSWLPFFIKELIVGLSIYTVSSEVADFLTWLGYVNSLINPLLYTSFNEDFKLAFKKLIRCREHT", "assay": "Counterscreen assay for S1P3 antagonists: Dose response cell-based high throughput screening assay to identify antagonists of the 5-Hydroxytryptamine Receptor Subtype 1E (5HT1E). [Related pubchem assays: 1429, 485 ]", "format": "functional"}, "[27]": {"biological_target": "Sphingosine 1-phosphate receptor 3 (Homo sapiens, UniProt Q99500)", "sequence (Q99500 whole entry)": "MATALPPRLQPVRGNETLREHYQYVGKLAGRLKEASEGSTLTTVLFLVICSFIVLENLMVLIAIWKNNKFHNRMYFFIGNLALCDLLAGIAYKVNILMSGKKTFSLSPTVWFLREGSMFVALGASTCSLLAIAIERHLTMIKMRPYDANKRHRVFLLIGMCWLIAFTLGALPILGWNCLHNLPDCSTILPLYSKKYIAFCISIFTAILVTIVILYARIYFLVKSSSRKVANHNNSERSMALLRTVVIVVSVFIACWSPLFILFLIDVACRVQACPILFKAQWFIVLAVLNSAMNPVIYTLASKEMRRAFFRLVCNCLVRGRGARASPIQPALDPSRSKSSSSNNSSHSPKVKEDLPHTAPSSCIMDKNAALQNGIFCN", "assay": "Dose response cell-based high throughput screening assay for antagonists of the Sphingosine 1-Phosphate Receptor 3 (S1P3). [Related pubchem assays: 1429, 485 ]", "format": "functional"}}, "note": "Activity calls are given as the source filed them."}
{"compound": "Cc1ccccc1Cn1nnc(C(=O)Nc2cccc(C)c2C)c1N", "values": [{"measurement": "EC50", "setting": "[1]", "value": "> 29.9 µM (not active)"}, {"measurement": "EC50", "setting": "[2]", "value": "> 29.9 µM (not active)"}, {"measurement": "IC50", "setting": "[3]", "value": "39.8 µM (inactive)"}]}
{"compound": "CCC(C)(C)c1ccc(Oc2ccc(N)cc2)cc1", "values": [{"measurement": "EC50", "setting": "[4]", "value": "< 0.1 µM (active)"}, {"measurement": "EC50", "setting": "[5]", "value": "0.216 µM (active)"}, {"measurement": "EC50", "setting": "[6]", "value": "0.482 µM (active)"}, {"measurement": "EC50", "setting": "[7]", "value": "0.432 µM (active)"}, {"measurement": "EC50", "setting": "[8]", "value": "< 0.1 µM (active)"}, {"measurement": "EC50", "setting": "[9]", "value": "0.476 µM (active)"}]}
{"compound": "COc1ccccc1/N=C1/SCCCN1C", "values": [{"measurement": "IC50", "setting": "[10]", "value": "> 100 µM (inactive)"}, {"measurement": "EC50", "setting": "[11]", "value": "> 195 µM (not active)"}, {"measurement": "IC50", "setting": "[12]", "value": "3.57 µM (active)"}]}
{"compound": "CNc1ccc(Br)cc(C(=O)/C=C/c2cccc(Cl)c2Cl)c1=O", "values": [{"measurement": "IC50", "setting": "[13]", "value": "5.02 µM (active)"}, {"measurement": "IC50", "setting": "[14]", "value": "2.63 µM (active)"}]}
{"compound": "CC1(C)C[C@H]2C=C(C=O)[C@]3(C=O)C[C@]3(C)[C@H]2C1", "note": "[ISOVELLERAL]", "values": [{"measurement": "EC50", "setting": "[15]", "value": "5.11 µM (inconclusive)"}, {"measurement": "EC50", "setting": "[11]", "value": "0.53 µM (active)"}, {"measurement": "EC50", "setting": "[16]", "value": "5.77 µM (inconclusive)"}, {"measurement": "IC50", "setting": "[17]", "value": "0.253 µM (active)"}, {"measurement": "EC50", "setting": "[18]", "value": "3.8 µM (inconclusive)"}, {"measurement": "EC50", "setting": "[19]", "value": "5.29 µM (inconclusive)"}, {"measurement": "IC50", "setting": "[20]", "value": "4.96 µM (active)"}, {"measurement": "EC50", "setting": "[21]", "value": "< 0.5 µM (active)"}, {"measurement": "CC50", "setting": "[22]", "value": "29.5 µM (active)"}, {"measurement": "IC50", "setting": "[23]", "value": "> 80 µM (inactive)"}, {"measurement": "EC50", "setting": "[24]", "value": "0.575 µM (inconclusive)"}]}
{"compound": "CCCC[C@@H]1C[C@H]1[C@@H](NC(=O)c1cccs1)c1ccc(Cl)cc1", "values": [{"measurement": "CC50", "setting": "[25]", "value": "20.8 µM (active)"}, {"measurement": "IC50", "setting": "[26]", "value": "2.47 µM (active)"}, {"measurement": "IC50", "setting": "[27]", "value": "1.21 µM (active)"}]}
